# Results: US11795135B2, “Prostacyclin compounds, compositions and methods of use thereof” (Insmed Incorporated, priority 2013, dated 2023)
# Entries after “also recorded” stand apart in the source; their conditions may differ. Read-outs that look alike come from different tables or passages of the source.
# What was measured:
# esterase = experiment: Esterase mediated conversion of treprostinil compounds to treprostinil; assay type: in vitro ADME; settings: incubation with esterase at 37° C., 1 hour (FIG. 28, 30)
# Procedure: A set of studies was conducted to determine the conversion kinetics to treprostinil of linear treprostinil compounds versus various branched treprostinil compounds. 0.4 mM of linear C8-TR or branched treprostinil compounds 2-dimethyl-1-propanyl-TR, 3,3-dimethyl-1-butanyl-TR, 2-ethyl-1-butanyl-TR, 5-nonanyl-TR, or 3-pentanyl-TR (see below for structures) were incubated with 0.2 U esterase at 37° C. for 1 hour, and the conversion (% of total) was calculated at 0.25, 0.5, 0.75, or 1 hour incubation time. • C8-TR (i.e., the compound of Formula (A) wherein
# The conversion is relative to the C8-TR compound and conversion was measured at 1 hr. post esterase incubation. • C8-TR (i.e., the compound of Formula (A) wherein
# Conversion was measured at 1 hr. post esterase incubation. • 4C7-TR (i.e., the compound of Formula (A) wherein
# EP2 prostanoid receptor = biological target: T1, EP2 prostanoid receptor (Homo sapiens, UniProt P43116); experiment: GloSensor cAMP assay in CHO-K1 cells co-transfected with the EP2 receptor; assay type: cell-based; settings: for ranking of activity of the treprostinil compounds: kinetic profile, 10 μM and 5 μM, FIG. 21
# T1 construct: host or cells: CHO-K1
# Excerpt: cAMP is a second messenger involved in signal transduction of G-protein coupled receptors (GPCRs) acting through Gα-s and Gα-i proteins. Because the treprostinil receptor is a GPCR, the assay provides an indication of whether the respective prostacyclin compound (or metabolite thereof) binds its receptor and activates the GPCR cell signaling cascade. The GloSensorTM assay harnesses a genetically modified form of firefly luciferase into which a cAMP-binding protein moiety has been inserted. Upon binding of cAMP, a conformational change is induced leading to increased light output. The EP2 prostanoid receptor was co-transfected with the GloSensorTM plasmid (Promega) into CHO-K1 cells as follows. CHO-K1 cells were harvested when the monoloayer was at 50-90% confluence. First, cells were washed with 5 mL PBS. […] The media was aspirated, and the cell pellet was resuspended in 10 mL of growth media. Cell number was determined using a hemacytometer. Each well of a culture treated 96 well flat bottom plate (Costar, Cat #: 3917) was seeded with 1×10^4 cells per 100 μL antibiotic-free growth media. […] For small scale transfections of up to 20 wells, the pGLoSensor-22F cAMP plasmid (Promega, Cat #: E2301) (2 μg): (EP2) (10 ng) (Origene, Cat #: SC126558):pGEM-3Zf(+) (10 ng) (Promega, Cat #: P2271) ratio was diluted to a final concentration of 12.6 ng/μL (total plasmid) in Opti-MEM I reduced-serum medium (Life Technologies, Cat #: 1985062). Next, 6 μL of FuGENE HD transfection reagent (Promega, Cat #: E2311) was added to 160 μL of diluted plasmid and mixed carefully by gentle pipetting. The complex was incubated at room temperature for 0 to 10 minutes, and then 8 μL of the complex was added per well of a 96 well white assay plate (Costar, Cat #: 3917) and gently mixed without disturbing the cell monolayer. […] Following incubation, cells were treated and analyzed. For larger scale transfections, the aforementioned steps were scaled up accordingly, and cells were frozen following the last incubation. In order to prepare frozen transfected CHO-K1 cells, the media was aspirated from culture flasks and cells were rinsed with 5 mL PBS. […] Cell number was determined using a hemacytometer. The media was aspirated, and the cell pellet was resuspended in freezing media (Millipore, cat #: S-002-5F) at 2.5×10^6 cells/vial. Transfected cells were incubated overnight at -80° C. before transfer to liquid nitrogen for long term storage. […] In preparation for cAMP measurement, the cells were equilibrated with the GloSensor cAMP reagent prior to treatment. For equilibration, the medium was carefully removed from the individual well. Next, 100 μL of equilibration medium ([…] of Glosensor Reagent stock solution (Promega, Cat #: E291), 10% FBS (Hyclone, Cat #: SH30071.03) and 88% CO2 independent medium (Life Technologies, Cat #: 18045088)) was added per well of the 96-well plate, and added to the side of each well. The plate was then incubated for 2 hours at room temperature. A first pre-read measurement was taken using a microplate reader (MicroLumat Plus). Plates were incubated for an additional 10 minutes at room temperature, followed by a second pre-read measurement. […] Following treatment, each plate was read every 5 minutes for the duration of the assay using a microplate reader (MicroLumat Plus). In order to determine the fold change in cAMP relative to the control, the transfection efficiency was first determined by dividing the second pre-read measurement by the average of the corresponding pre-read measurements. Next, the normalized relative light units (RLUs) of the samples were determined by dividing the plate read measurement by the transfection efficiency. The fold change in cAMP relative to the control was then determined by dividing the normalized RLU of the samples by the normalized RLU of the control. The cAMP assay was validated using free treprostinil. […] Luminescence was then measured at room temperature. […]
# CHO-K1 cells = experiment: CHO-K1 cell proliferation assay (Presto Blue)
# Procedure: CHO-K1 cells were harvested when the cell monolayer was 50-90% confluent (use passage 4-11). Media was aspirated out of the flask, and cells were rinsed with 2 mL of F12 media. Next, 1 mL of pre-warmed (37° C.) 0.25% trypsin-EDTA (Life Technologies, Cat #: 25300054) was added, and cells were dislodged from the flask by tapping it on the side. Complete growth media (F12 (Life Technologies, Cat #: 31765092)+10% FBS (Hyclone, Cat #: SH30071.03)+1× Pen-Strep (Life Technologies, cat #15140-122) was then added at a volume of 10 mL. Cells were centrifuged at 250×g for 5 minutes at room temperature, and the media was aspirated. The cell pellet was resuspended in 10 mL complete growth media. Cell number was determined using a hemacytometer. Cells were then seeded at 2000 cells per well of a 96-well plate in 100 μL of complete growth media. The plate was incubated overnight at 37° C. and 5% CO2 in a water-jacketed incubator.
# The next day, 80 μL of fresh complete media was added to each well, and CHO-K1 cells were challenged with treprostinil compound and composition treatments. The working solutions were prepared at 10× concentration, and following 2 fold serial dilutions, 20 μL aliquots were added per well to arrive at a final 1× concentration. Following a 48 hour incubation at 37° C. and 5% CO2 in a water-jacketed incubator, the inhibitory effect on cell proliferation was determined. Plates were analyzed using 20 μL of Presto Blue reagent (Life Technologies, cat #: A13262) per well. The reagent was mixed, and plates were incubated for 1 hour at 37° C. and 5% CO2 in a water-jacketed incubator. Plates were read using either a CytoFluor Series 4000 (PerSeptive BioSystems) or Synergy Neo microplate reader (BioTek) with emission λ: 590 nm and excitation λ: 560 nm.
# at concentrations ranging from 0.55 μM to 125 μM. Following a 48 hour incubation period, the inhibitory effect of the treprostinil derivative compositions on cell proliferation was determined.
# C2, C3, C4, C5, C6, C8, C10 or Cu straight chain alkyl, at dosages ranging from 0.098 μM to 25 μM. Following a 48 hour incubation period, the inhibitory effect on cell proliferation was determined.
# Following a 72 hour incubation period, the inhibitory effect on cell proliferation was determined. Following a 48 hour incubation period, the inhibitory effect on cell proliferation was determined.
# Similarly, CHO-K1 cells were challenged with the treprostinil compositions T612 (R2=C2), T613 (R2=C8) at concentrations ranging from 1.41 μM to 180 μM.
# [1] = test system: Rat alveolar NR8383 cells; experiment: NR8383 cell proliferation assay (Presto Blue); assay type: cell-based
# Procedure: Rat alveolar NR8383 cells were harvested when the monolayer was 50-90% confluent (use passage 5-11). Because the NR8383 cells include both adherent and non-adherent cells, media was transferred to a 50 mL Falcon tube. To obtain the cells remaining in the flask, 2 mL of plain media was added, and the remaining cells were scraped out of the 75 cm^2 flask with a cell scraper and added to the 50 mL tube. […] SH30071.03)+1×Pen-Strep (Life Technologies, cat #: 15410-122)). Cell number was determined using a hemacytometer. […] Measurements and calculations were made as described above for the CHO-K1 cells.
# [2] = Particle size characterization of treprostinil compositions (QELS); assay type: physicochemical; settings: particles of compositions comprising the alkyl ester, FIG. 2
# Procedure: All particle size measurements were performed using a Wyatt Technology Mobius™ Zeta Potential/Particle Sizing Instrument in Quasi-elastic light scattering (QELS) mode. Composition aliquots were diluted 10-fold in pre-filtered (0.02 μm pore filter) ultrapure of deionized H2O. Light scattering data was collected and converted into particle size and size distribution using Dynamics® v. […] Reported average particle size diameter is based on the cumulants model, which mathematically fits particle diffusion constants (determined by the raw scattering intensities of particles in a suspension) to obtain the particle size mean and a distribution of particle sizes around the mean diameter.
# Particle uniformity was determined using the software-calculated polydispersity (% PD). Polydispersity is defined as the standard deviation of the particle size distribution from the mean particle size value. % PD normalizes the polydispersity to the mean diameter by dividing by the mean size and multiplying by 100. These parameters indicate whether a particle suspension has one or more size populations of particles (monomodal versus multimodal). […]
# Dynamics® polydispersity parameter represents a monodisperse population of particles if % PD≤15. A calculated % PD≥57% represents a polydisperse population of particles.
# [3] = Treprostinil alkyl ester conversion to treprostinil in rat lung tissue homogenate; assay type: in vitro ADME; settings: 37° C., 200 nM, 4 hours, 10 mg/mL of protein
# Procedure: Treprostinil alkyl ester conversion to treprostinil was also measured in the presence of rat, dog and monkey lung tissue homogenate at 37° C. Here, data were calculated based on fit of exponential increase to the maximum (experiments performed in duplicate). The results of this study are provided below in Table 2A and FIG. 37. […] Both FIG. 37 experiments (left and right graphs) were performed in duplicate and the lines represent nonlinear exponential regression assuming 1 phase decay.
# [4] = unformulated alkyl esters, 48 hour incubation
# [5] = unformulated alkyl esters, 72 hour incubation
# T1 sequence (P43116 whole entry): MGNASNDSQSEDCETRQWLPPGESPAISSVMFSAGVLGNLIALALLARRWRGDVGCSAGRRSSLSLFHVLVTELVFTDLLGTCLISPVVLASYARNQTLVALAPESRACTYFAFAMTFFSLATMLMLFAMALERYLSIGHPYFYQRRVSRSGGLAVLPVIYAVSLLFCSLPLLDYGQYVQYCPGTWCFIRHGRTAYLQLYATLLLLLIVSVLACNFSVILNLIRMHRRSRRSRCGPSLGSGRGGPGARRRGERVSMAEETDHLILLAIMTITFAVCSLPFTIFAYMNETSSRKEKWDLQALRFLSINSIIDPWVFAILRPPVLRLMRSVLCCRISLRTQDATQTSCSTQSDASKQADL
Compound,esterase mediated conversion rate to treprostinil (comparison) (esterase),"Effect on cell proliferation, CHO-K1 Cells (0.195 μM-25 μM) (CHO-K1 cells; [4])","Effect on cell proliferation, NR8383 Cells (0.195 μM-25 μM) [1, 5]",further results
CCCCCC(O)CCC1C(O)CC2Cc3c(cccc3OCC(=O)OC(CCC)CCCC)CC21 (mixture of isomers) [Compound 4C8-TR],slower conversion rate than the linear compound C8-TR; also recorded: slower conversion rate than the symmetrical compounds (4C7-TR and 5C9-TR),–,–,–
CCCCCC[C@@H](C)OC(=O)COc1cccc2c1C[C@H]1C[C@@H](O)[C@H](CC[C@@H](O)CCCCC)[C@H]1C2 [(R)-2C8-TR],no significant difference between the conversion rates of R and S isomers,–,–,–
CCCCCC[C@H](C)OC(=O)COc1cccc2c1C[C@H]1C[C@@H](O)[C@H](CC[C@@H](O)CCCCC)[C@H]1C2 [(S)-2C8-TR],no significant difference between the conversion rates of R and S isomers,–,–,–
CCCCC[C@H](O)CC[C@@H]1[C@H]2Cc3cccc(OCC(=O)OC(CCC)CCC)c3C[C@H]2C[C@H]1O [Compound 4C7-TR],slower conversion rate than the linear compound C8-TR,–,–,–
"CCCCC[C@H](O)CC[C@@H]1[C@H]2Cc3cccc(OCC(=O)OC(CCCC)CCCC)c3C[C@H]2C[C@H]1O [Compound 5C9-TR, 5-nonanyl-treprostinil]",slower conversion rate than the linear compound C8-TR,–,–,esterase mediated conversion rate to treprostinil (comparison) (esterase; listed as 5-nonanyl-TR): slower conversion rate than linear C8-TR; ranking of activity of the treprostinil compounds (EP2 prostanoid receptor): C12-TR>C14-TR>5-nonanyl-TR>C16-TR
"CCCCC[C@H](O)CC[C@@H]1[C@H]2Cc3cccc(OCC(=O)OCC)c3C[C@H]2C[C@H]1O [Compound C2-TR, treprostinil ethyl ester]",–,No detectable cell inhibition,No detectable cell inhibition,–
CCCCC[C@H](O)CC[C@@H]1[C@H]2Cc3cccc(OCC(=O)OCCC)c3C[C@H]2C[C@H]1O [Compound C3-TR],–,No detectable cell inhibition,No detectable cell inhibition,–
CCCCC[C@H](O)CC[C@@H]1[C@H]2Cc3cccc(OCC(=O)OCCCC)c3C[C@H]2C[C@H]1O [Compound C4-TR],–,No detectable cell inhibition,No detectable cell inhibition,–
CCCCCCOC(=O)COc1cccc2c1C[C@H]1C[C@@H](O)[C@H](CC[C@@H](O)CCCCC)[C@H]1C2 [Compound C6-TR],–,No detectable cell inhibition,No detectable cell inhibition,–
"CCCCCCCCCCCCCCOC(=O)COc1cccc2c1C[C@H]1C[C@@H](O)[C@H](CC[C@@H](O)CCCCC)[C@H]1C2 [Compound C14-TR, tetradecyl-treprostinil]",–,–,–,polydispersity (% PD) [2]: around 15%; Rate of treprostinil alkyl ester conversion [3]: 0.4 nmOL/h * g of protein; ranking of activity of the treprostinil compounds (EP2 prostanoid receptor): C12-TR>C14-TR>5-nonanyl-TR>C16-TR
treprostinil decyl ester [Compound C10-TR],–,–,–,"polydispersity (% PD) [2]: around 15%; Effect on cell proliferation, CHO-K1 Cells (0.195 μM-25 μM) (CHO-K1 cells): No detectable cell inhibition; duration of cAMP levels compared with free treprostinil and the C6, C8, and C12 derivatives (EP2 prostanoid receptor; 5 μM, FIG. 4 and FIG. 5): sustained significantly longer; cAMP levels compared with free treprostinil (EP2 prostanoid receptor; 10 μM, composition, FIG. 3A): equivalent to free treprostinil; cAMP levels sustained for (EP2 prostanoid receptor; 10 μM, composition, FIG. 3A): at least 6 hours; cAMP response compared with the response induced by free treprostinil (EP2 prostanoid receptor; compositions, 5 μM, FIG. 4): greater than or equivalent to the response induced by free treprostinil; cAMP response level (EP2 prostanoid receptor; unformulated compounds, 5 μM, FIG. 5): equivalent to free treprostinil; Effect on cell proliferation, NR8383 Cells (0.195 μM-25 μM) [1]: No detectable cell inhibition"
